According to patent US7101853B2 (Amylin Pharmaceuticals, Inc., priority 1997, dated 2006):
Like-named read-outs stand apart in the source and are kept apart here. Where no end group is shown, it is not given here.

Columns and labels:
treated test animals = assay: Amylin activity in vivo in treated test animals
[1] = tested on: ethanol- or indomethacin-induced gastritis in rats; conditions: cited from earlier work
[2] = in rats, in rabbits, and in humans with Paget's disease; cited from earlier work
[3] = molecular target: amylin receptor (membrane-bound, rat basal forebrain membranes containing the nucleus accumbens and surrounding regions) (rat); assay: competition with 125I-rat amylin on rat basal forebrain membranes
ethanol gavaged rat = assay: Gastroprotection: ethanol-induced mucosal damage in the ethanol gavaged rat; assay type: in vivo
From the text: The gastroprotective properties of amylin in an animal model for gastritis—the ethanol gavaged rat—are described in this example.
Mucosal damage was scored between 0 (no damage) and 5 (100% of stomach covered by hyperemia and ulceration) by investigators blinded to the treatment. […] This prediction was obtained by applying the published relationship between injected subcutaneous dose and peak plasma concentration in rats. Young, A. A. et al., Drug Devel. Res. 37:231-48 (1996). […] Mimicking this physiological effect is unlikely to result in unwanted side effects, as is often the case with administration of unphysiological xenobiotics.

[4] = tested on: Harlan Sprague Dawley (non-diabetic) rats; assay: Phenol red gastric emptying assay, normal rats; assay type: in vivo, rat; conditions: 1 μg s.c. 5 minutes before gavage, normal HSD rats
From the text: (§1) Briefly, conscious rats received by gavage. […] Twenty minutes after gavage, rats were anesthetized using 5% halothane, the stomach exposed and clamped at the pyloric and lower esophageal sphincters using artery forceps, removed and opened into an alkaline solution which was made up to a fixed volume. Stomach content was derived from the intensity of the phenol red in the alkaline solution, measured by absorbance at a wavelength of 560 nm. In most experiments, the stomach was clear. In other experiments, particulate gastric contents were centrifuged to clear the solution for absorbance measurements. Where the diluted gastric contents remained turbid, the spectroscopic absorbance due to phenol red was derived as the difference between that present in alkaline vs acetified diluent. […] The quantity of phenol red that could be recovered from the upper gastrointestinal tact within […] of gavage was 89±4%; dye which appeared to bind irrecoverably to the gut luminal surface may have accounted for the balance. To compensate for this small loss, percent of stomach contents remaining after 20 minutes were expressed as a fraction of the gastric contents recovered from control rats sacrificed immediately after gavage in the same experiment. Percent gastric emptying contents remaining=(absorbance at 20 min)/(absorbance at 0 min). […]

diabetic BB rats = assay: Phenol red gastric emptying assay, diabetic rats; assay type: in vivo, rat; conditions: 10 μg s.c. 5 minutes before gavage
From the text: as §1

[5] = tested on: Harlan Sprague Dawley rats; assay: Tritiated glucose gastric emptying assay; assay type: in vivo, rat
Protocol: Conscious, non-fasted, Harlan Sprague Dawley rats were restrained by the tail, the tip of which was anesthetized using 2% lidocaine. Tritium in plasma separated from tail blood collected 0, 15, 30, 60, 90 and 120 minutes after gavage was detected in a beta counter.

CC[C@H](C)[C@H](NC(=O)[C@@H]1CCCN1C(=O)CNC(=O)[C@H](Cc1ccccc1)NC(=O)[C@H](CC(N)=O)NC(=O)[C@H](CC(N)=O)NC(=O)[C@H](CO)NC(=O)[C@H](CO)NC(=O)[C@H](Cc1c[nH]cn1)NC(=O)[C@@H](NC(=O)[C@H](CC(C)C)NC(=O)[C@H](Cc1ccccc1)NC(=O)[C@H](CC(N)=O)NC(=O)[C@H](C)NC(=O)[C@H](CC(C)C)NC(=O)[C@H](CCCNC(=N)N)NC(=O)[C@H](CCC(N)=O)NC(=O)[C@@H](NC(=O)[C@H](C)NC(=O)[C@@H]1CSSC[C@H](NC(=O)[C@@H](N)CCCCN)C(=O)N[C@@H](CC(N)=O)C(=O)N[C@@H]([C@@H](C)O)C(=O)N[C@@H](C)C(=O)N[C@@H]([C@@H](C)O)C(=O)N1)[C@@H](C)O)C(C)C)C(=O)N[C@@H](CC(C)C)C(=O)N1CCC[C@H]1C(=O)N1CCC[C@H]1C(=O)N[C@H](C(=O)N[C@@H](CC(N)=O)C(=O)N[C@H](C(=O)NCC(=O)N[C@@H](CO)C(=O)N[C@@H](CC(N)=O)C(=O)N[C@H](C(=O)N[C@@H](Cc1ccc(O)cc1)C(N)=O)[C@@H](C)O)C(C)C)[C@@H](C)O [^25,28,29Pro-h-Amylin]
Amylin activity in vivo (treated test animals): show amylin activity in vivo

amylin (KCNTATCATQRLANFLVHSSNNFGAILSSTNVGSNTY; not fully specified (C-terminus, bridges); cysteine pairing not given here; UniProt P10997 34-70, looked up) [amylin as named in the cited literature, species form not specified at the place]
Effect on ethanol- or indomethacin-induced gastritis ([1]; intracerebroventricular injections): did have an effect
Effect on ethanol- or indomethacin-induced gastritis ([1]; subcutaneous injections): no effect
Lowering of plasma calcium [2]: up to 20%

des-^1Lys-h-amylin (CNTATCATQRLANFLVHSSNNFGAILSSTNVGSNTY)
Amylin activity in vivo (treated test animals): show amylin activity in vivo

purified human amylin (from UniProt P10997 34-70) (peptide)
IC50 [3]: 0.05 nM

rat amylin
Mucosal damage, percent of scores in the saline-treated controls (ethanol gavaged rat; 0.001 μg s.c. 5 min before gavage of 1 ml absolute ethanol): 95.3±15.2%
Mucosal damage, percent of scores in the saline-treated controls (ethanol gavaged rat; 0.01 μg s.c. 5 min before gavage of 1 ml absolute ethanol): 76.6±13.8%
Mucosal damage, percent of scores in the saline-treated controls (ethanol gavaged rat; 0.1 μg s.c. 5 min before gavage of 1 ml absolute ethanol): 70.1±10.7%
Mucosal damage, percent of scores in the saline-treated controls (ethanol gavaged rat; 0.3 μg s.c. 5 min before gavage of 1 ml absolute ethanol): 33.9±7.7%
Mucosal damage, percent of scores in the saline-treated controls (ethanol gavaged rat; 1 μg s.c. 5 min before gavage of 1 ml absolute ethanol): 59.6±5.8%
Mucosal damage, percent of scores in the saline-treated controls (ethanol gavaged rat; 3 μg s.c. 5 min before gavage of 1 ml absolute ethanol): 35.6±11.5%
Mucosal damage, percent of scores in the saline-treated controls (ethanol gavaged rat; 10 μg s.c. 5 min before gavage of 1 ml absolute ethanol): 32.9±8.3%
Predicted increase in circulating amylin concentrations at the 50% gastroprotective dose (ethanol gavaged rat; […] s.c., from published relationship between s.c. dose and peak plasma concentration in rats): 1.8 ± 0.4 pM
Reduction of the injury score (ethanol gavaged rat; as observed with the 10 μg dose): up to 67%
ED50 for the gastroprotective effect (ethanol gavaged rat; s.c., ±0.4 log units): 0.036 μg/rat
Suppression of gastric emptying [4]: complete
Suppression of gastric emptying (diabetic BB rats): complete
Effect on absorption of the label (plasma tritium) ([5]; s.c. 0.1-100 μg 1 minute before gavage): dose-dependently slowed and/or delayed the absorption of the label
ED50 derived from the logistic fit (plasma tritium AUC over 30 minutes vs dose) ([5]; s.c. 1 minute before gavage of tritiated glucose): 0.35 μg
